In brackets after ≈: the same amount, converted by molar mass.
Assays:
[1] = test system: S6 Ribosomal Protein phosphorylation Ser235/236 in TSC1 null mouse embryo fibroblast (MEF) cells; assay: Reverse protein array assay, S6 Ribosomal Protein phosphorylation Ser235/236 in TSC1 null MEF cells; format: cell-based; conditions: 1 h, pS6 ribosomal protein Ser235/236, 60 minutes incubation, read-out: p-S6 IC50
Outline: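 TSC1−/− MEFs, seeded and held ≥20 h at 37 °C/5% CO2, were exposed to 8-step serial compound dilutions (0.02% DMSO final; DMSO vehicle control) for 60 min at 37 °C. Cells were then lysed on ice for 10 min and lysates spotted onto reverse protein array chips.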

mTOR = target: T1, mTOR (Homo sapiens, UniProt P42345); assay: Biochemical assay for m-TOR by TR-FRET; conditions: 8 μM ATP, 400 nM GFP-4EBP1, 0.5 nM mTOR
T1 construct: purchased Invitrogen Corporation (Carlsbad/CA, USA) PV4753
T1 sequence (P42345 1360-2549 limits assumed): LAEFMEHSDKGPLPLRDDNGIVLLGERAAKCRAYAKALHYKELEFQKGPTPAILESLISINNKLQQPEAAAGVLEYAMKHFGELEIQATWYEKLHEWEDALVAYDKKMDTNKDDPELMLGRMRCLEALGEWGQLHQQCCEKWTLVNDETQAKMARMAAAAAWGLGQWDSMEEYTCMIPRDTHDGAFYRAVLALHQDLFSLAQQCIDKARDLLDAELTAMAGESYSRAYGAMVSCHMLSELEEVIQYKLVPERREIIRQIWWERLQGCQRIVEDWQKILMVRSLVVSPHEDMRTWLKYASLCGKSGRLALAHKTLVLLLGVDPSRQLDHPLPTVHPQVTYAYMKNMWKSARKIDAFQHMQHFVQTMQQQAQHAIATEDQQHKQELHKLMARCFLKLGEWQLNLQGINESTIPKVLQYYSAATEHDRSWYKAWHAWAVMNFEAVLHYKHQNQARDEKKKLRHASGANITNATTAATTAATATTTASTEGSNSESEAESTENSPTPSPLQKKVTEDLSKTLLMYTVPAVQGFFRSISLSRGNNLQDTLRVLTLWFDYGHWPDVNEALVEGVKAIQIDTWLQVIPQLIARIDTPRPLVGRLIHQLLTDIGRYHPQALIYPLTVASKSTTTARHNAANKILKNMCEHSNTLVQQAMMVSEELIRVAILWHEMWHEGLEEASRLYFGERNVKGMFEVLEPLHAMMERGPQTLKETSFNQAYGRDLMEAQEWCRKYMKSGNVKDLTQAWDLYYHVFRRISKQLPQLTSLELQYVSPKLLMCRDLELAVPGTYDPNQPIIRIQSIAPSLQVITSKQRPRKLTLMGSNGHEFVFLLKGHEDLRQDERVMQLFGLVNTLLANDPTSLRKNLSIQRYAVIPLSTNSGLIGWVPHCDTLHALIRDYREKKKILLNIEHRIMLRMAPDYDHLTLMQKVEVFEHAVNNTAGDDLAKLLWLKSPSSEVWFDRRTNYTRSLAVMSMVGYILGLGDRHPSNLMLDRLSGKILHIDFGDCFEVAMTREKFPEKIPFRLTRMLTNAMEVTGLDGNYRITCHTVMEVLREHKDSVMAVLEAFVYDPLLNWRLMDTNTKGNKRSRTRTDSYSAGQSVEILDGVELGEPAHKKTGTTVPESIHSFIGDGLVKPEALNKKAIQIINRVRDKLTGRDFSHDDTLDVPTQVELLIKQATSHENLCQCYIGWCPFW
Outline: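 TR-FRET read-out: Tb-labelled anti-p4EBP1 pThr46 antibody (0.5 nM), added in EDTA to stop the reaction, detects phosphorylated GFP-4EBP1 after 15 min. Kinase step used 0.5 nM mTOR, 400 nM substrate, 8 μM ATP, MnCl2-containing HEPES buffer pH 7.5, room temperature.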

Solubility at pH 6.8 = format: physicochemical; conditions: pH 6.8, aqueous buffer, thermodynamic from solid; read-out: solubility
Outline: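 Following the procedure of Zhou et al. (2007), compound solubility was determined at pH 6.8.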

SMILES | IC50 [1] [nM] | IC50 (mTOR) [nM] | solubility (Solubility at pH 6.8) [µg/mL]
CCOc1ccc(-c2ccc3ncc4c(c3c2)n(-c2c(C)nn(CC(=O)N(C)C)c2C)c(=O)n4C)cn1 [Example 3.12, 2-{4-[8-(6-Ethoxy-pyridin-3-yl)-3-methyl-2-oxo-2,3-dihydro-imidazo[4,5-c]quinolin-1-yl]-3,5-dimethyl-pyrazol-1-yl}-N,N-dimethyl-acetamide] | 175 | 548 | > 500
Cc1cc(-n2c(=O)n(C)c3cnc4ccc(-c5ccc(C(F)(F)F)nc5)cc4c32)n(C)n1 [Example 8.2, 1-(2,5-Dimethyl-2H-pyrazol-3-yl)-3-methyl-8-(6-trifluoromethyl-pyridin-3-yl)-1,3-dihydro-imidazo[4,5-c]quinolin-2-one] | – | 677 | 4 (≈ 9.12 µM)
COc1ncc(-c2ccc3ncc4c(c3c2)n(-c2cn(C)nc2Cl)c(=O)n4C)cn1 [Example 17.3, 1-(3-Chloro-1-methyl-1H-pyrazol-4-yl)-8-(2-methoxy-pyrimidin-5-yl)-3-methyl-1,3-dihydro-imidazo[4,5-c]quinolin-2-one] | 3 | 12 | 4 (≈ 9.48 µM)
Cc1nn(C)cc1-n1c(=O)n(C)c2cnc3ccc(-c4ccc(N)nc4)cc3c21 [Example 23.1, 8-(6-Amino-pyridin-3-yl)-1-(1,3-dimethyl-1H-pyrazol-4-yl)-3-methyl-1,3-dihydro-imidazo[4,5-c]quinolin-2-one] | 4 | 4 | 16 (≈ 41.5 µM)
Cc1nn(C(C)C)cc1-n1c(=O)n(C)c2cnc3ccc(-c4ccc(N)nc4)cc3c21 [Example 23.2, 8-(6-Amino-pyridin-3-yl)-1-(1-isopropyl-3-methyl-1H-pyrazol-4-yl)-3-methyl-1,3-dihydro-imidazo[4,5-c]quinolin-2-one] | 2 | 7 | 45 (≈ 109 µM)
Cc1nn(C)cc1-n1c(=O)n(C)c2cnc3ccc(-c4cncc(N)c4)cc3c21 [Example 45.1, 8-(5-Amino-pyridin-3-yl)-1-(1,3-dimethyl-1H-pyrazol-4-yl)-3-methyl-1,3-dihydro-imidazo[4,5-c]quinolin-2-one] | 43.5 | 7 | > 385
COCc1cncc(-c2ccc3ncc4c(c3c2)n(-c2cn(C)nc2Cl)c(=O)n4C)c1 [Example 54.2, 1-(3-Chloro-1-methyl-1H-pyrazol-4-yl)-8-(5-methoxymethyl-pyridin-3-yl)-3-methyl-1,3-dihydro-imidazo[4,5-c]quinolin-2-one] | 1 | 94 | > 435
CCOc1cncc(-c2ccc3ncc4c(c3c2)n(-c2c(C)cnn2C)c(=O)n4C)c1 [Example 56.5, 1-(2,4-Dimethyl-2H-pyrazol-3-yl)-8-(5-ethoxy-pyridin-3-yl)-3-methyl-1,3-dihydro-imidazo[4,5-c]quinolin-2-one] | 130 | 763 | 16 (≈ 38.6 µM)
Cc1nn(C)cc1-n1c(=O)n(C)c2cnc3ccc(-c4cncc(OCC5CC5)c4)cc3c21 [Example 61, 8-(5-Cyclopropylmethoxy-pyridin-3-yl)-1-(1,3-dimethyl-1H-pyrazol-4-yl)-3-methyl-1,3-dihydro-imidazo[4,5-c]quinolin-2-one] | 1 | 65 | 8 (≈ 18.2 µM)
Cc1nn(C)cc1-n1c(=O)n(C)c2cnc3ccc(-c4cnc5c(c4)nc(N(C)C)n5C)cc3c21 [Example 70, 8-(2-Dimethylamino-3-methyl-3H-imidazo[4,5-b]pyridin-6-yl)-1-(1,3-dimethyl-1H-pyrazol-4-yl)-3-methyl-1,3-dihydro-imidazo[4,5-c]quinolin-2-one] | 16 | 81 | 47 (≈ 101 µM)
Cc1nn(C)c(C)c1-n1c(=O)n(C)c2cnc3ccc(-c4cnc(N)nc4)cc3c21 [Example 81.2, 8-(2-Amino-pyrimidin-5-yl)-3-methyl-1-(1,3,5-trimethyl-1H-pyrazol-4-yl)-1,3-dihydro-imidazo[4,5-c]quinolin-2-one] | 19 | 324 | 133 (≈ 332 µM)
CCOc1cc(-c2ccc3ncc4c(c3c2)n(-c2cn(C)nc2C)c(=O)n4C)cnc1C [Example 85.1, 1-(1,3-Dimethyl-1H-pyrazol-4-yl)-8-(5-ethoxy-6-methyl-pyridin-3-yl)-3-methyl-1,3-dihydro-imidazo[4,5-c]quinolin-2-one] | 1 | 17 | 6 (≈ 14 µM)
Cc1ncc(-c2ccc3ncc4c(c3c2)n(-c2cn(C)nc2Cl)c(=O)n4C)cc1N [Example 88.1, 8-(5-Amino-6-methyl-pyridin-3-yl)-1-(3-chloro-1-methyl-1H-pyrazol-4-yl)-3-methyl-1,3-dihydro-imidazo[4,5-c]quinolin-2-one] | 2 | 8 | 3 (≈ 7.14 µM)
CCOc1ccc(-c2ccc3ncc4c(c3c2)n(-c2cn(CCO)nc2C)c(=O)n4C)cn1 [Example 103.2, 8-(6-Ethoxy-pyridin-3-yl)-1-[1-(2-hydroxy-ethyl)-3-methyl-1H-pyrazol-4-yl]-3-methyl-1,3-dihydro-imidazo[4,5-c]quinolin-2-one] | 3 | 22 | 10 (≈ 22.5 µM)
CCOc1ccc(-c2ccc3ncc4c(c3c2)n(-c2cn(CC(=O)N(C)CC)nc2C)c(=O)n4C)cn1 [Example 136, 2-{4-[8-(6-Ethoxy-pyridin-3-yl)-3-methyl-2-oxo-2,3-dihydro-imidazo[4,5-c]quinolin-1-yl]-3-methyl-pyrazol-1-yl}-N-ethyl-N-methyl-acetamide] | 3 | 9 | 141 (≈ 282 µM)
COCCN(C)C(=O)Cn1cc(-n2c(=O)n(C)c3cnc4ccc(-c5ccccc5)cc4c32)c(C)n1 [Example 137, N-(2-Methoxy-ethyl)-N-methyl-2-[3-methyl-4-(3-methyl-2-oxo-8-phenyl-2,3-dihydro-imidazo[4,5-c]quinolin-1-yl)-pyrazol-1-yl]-acetamide] | 9 | 324 | 427 (≈ 881 µM)
CCOc1ccc(-c2ccc3ncc4c(c3c2)n(-c2cn(CC(=O)N3CCC3)nc2C)c(=O)n4C)cn1 [Example 138, 1-[1-(2-Azetidin-1-yl-2-oxo-ethyl)-3-methyl-1H-pyrazol-4-yl]-8-(6-ethoxy-pyridin-3-yl)-3-methyl-1,3-dihydro-imidazo[4,5-c]quinolin-2-one] | 3 | 10 | 26 (≈ 52.3 µM)
CCN(CC)C(=O)Cn1cc(-n2c(=O)n(C)c3cnc4ccc(-c5ccc(C)nc5)cc4c32)c(C)n1 [Example 139, N,N-Diethyl-2-{3-methyl-4-[3-methyl-8-(6-methyl-pyridin-3-yl)-2-oxo-2,3-dihydro-imidazo[4,5-c]quinolin-1-yl]-pyrazol-1-yl}-acetamide] | 4 | 21 | > 484
CNc1ncc(-c2ccc3ncc4c(c3c2)n(-c2cn(C)nc2C)c(=O)n4C)cc1C(F)(F)F [Example 144.3, 1-(1,3-Dimethyl-1H-pyrazol-4-yl)-3-methyl-8-(6-methylamino-5-trifluoromethyl-pyridin-3-yl)-1,3-dihydro-imidazo[4,5-c]quinolin-2-one] | < 0.5 | 3 | 44 (≈ 94.1 µM)
CNc1ncc(-c2ccc3ncc4c(c3c2)n(-c2cn(C)nc2C)c(=O)n4C)cc1Cl [Example 146.1, 8-(5-Chloro-6-methylamino-pyridin-3-yl)-1-(1,3-dimethyl-1H-pyrazol-4-yl)-3-methyl-1,3-dihydro-imidazo[4,5-c]quinolin-2-one] | < 0.5 | < 3 | > 434
CCn1cc(-n2c(=O)n(C)c3cnc4ccc(-c5cnc(NC)c(Cl)c5)cc4c32)c(C)n1 [Example 146.2, 8-(5-Chloro-6-methylamino-pyridin-3-yl)-1-(1-ethyl-3-methyl-1H-pyrazol-4-yl)-3-methyl-1,3-dihydro-imidazo[4,5-c]quinolin-2-one] | 2 | 20 | 6 (≈ 13.4 µM)
Cc1nn(C(C)C)cc1-n1c(=O)n(C)c2cnc3ccc(-c4cnc(F)c(N)c4)cc3c21 [Example 149.1, 8-(5-Amino-6-fluoro-pyridin-3-yl)-1-(1-isopropyl-3-methyl-1H-pyrazol-4-yl)-3-methyl-1,3-dihydro-imidazo[4,5-c]quinolin-2-one] | 9 | 79 | 13 (≈ 30.1 µM)
Cc1nn(C)cc1-n1c(=O)n(C)c2cnc3ccc(-c4cnc(F)c(N)c4)cc3c21 [Example 149.2, 8-(5-Amino-6-fluoro-pyridin-3-yl)-1-(1,3-dimethyl-1H-pyrazol-4-yl)-3-methyl-1,3-dihydro-imidazo[4,5-c]quinolin-2-one] | 3 | 39 | 21 (≈ 52.1 µM)
CCn1cc(-n2c(=O)n(C)c3cnc4ccc(-c5cnc(F)c(NC)c5)cc4c32)c(C)n1 [Example 150.1, 1-(1-Ethyl-3-methyl-1H-pyrazol-4-yl)-8-(6-fluoro-5-methylamino-pyridin-3-yl)-3-methyl-1,3-dihydro-imidazo[4,5-c]quinolin-2-one] | 1 | 17 | 5 (≈ 11.6 µM)
CCc1ncc(-c2ccc3ncc4c(c3c2)n(-c2cn(C)nc2C)c(=O)n4C)cc1NC(C)C [Example 162, 1-(1,3-Dimethyl-1H-pyrazol-4-yl)-8-(6-ethyl-5-isopropylamino-pyridin-3-yl)-3-methyl-1,3-dihydro-imidazo[4,5-c]quinolin-2-one] | – | 3 | > 456

From US20140005163A1 (NOVARTIS AG, priority 2010, published 2014)
